Laboratory results published in article PMC6753144, “Exploiting biofilm phenotypes for functional characterization of hypothetical genes in Enterococcus faecalis” (NPJ Biofilms and Microbiomes, 2019).

Biological target: T1, Bph-H6 (Bph, OG1RF_10435, biofilm phosphatase) (Enterococcus faecalis, UniProt A0ACD6T9Q6)
T1 construct: full length, 177 residues, C-terminal His6 tag (pET28b+, NcoI/XhoI), expressed in E. coli BL21(DE3), Ni-NTA purified
Assay: malachite green phosphate release assay
Format: biochemical
Settings: 10 mM Mn2+, pH 7.5, 37 °C, 1 h, 1 µM enzyme, 100 µM substrate

T1 sequence (A0ACD6T9Q6 entry or part of it): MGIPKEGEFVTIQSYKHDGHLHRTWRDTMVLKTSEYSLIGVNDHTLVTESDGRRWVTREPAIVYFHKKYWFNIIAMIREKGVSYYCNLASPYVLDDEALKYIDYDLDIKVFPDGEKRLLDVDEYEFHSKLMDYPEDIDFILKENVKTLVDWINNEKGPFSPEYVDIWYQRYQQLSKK

SMILES	malachite green phosphate release assay
Nc1nc2c(ncn2[C@@H]2O[C@H](COP(=O)(O)OP(=O)(O)O)[C@@H](OP(=O)(O)OP(=O)(O)O)[C@H]2O)c(=O)[nH]1 [ppGpp]	We also detected phosphatase activity against ppGpp, the second messenger
Nc1ncnc2c1ncn2[C@@H]1O[C@H](COP(=O)(O)OP(=O)(O)OP(=O)(O)O)[C@@H](O)[C@H]1O [ATP]	Bph-H6 had in vitro phosphatase activity on nucleoside triphosphate, nucleoside diphosphate, and deoxynucleoside phosphate substrates
